Experimental data published in the kinase profiling compilation of Christmann-Franck et al. (2016).

Legend:
Assay in all cases: radiometric filter-binding kinase assay, Kinase HotSpot
Conditions in all cases: compound 0.5 µM; ATP 10 µM
[1] = biological target: MYLK2 (human) (UniProt Q9H1R3)
[2] = biological target: DYRK4 (human) (UniProt Q9NR20)
[3] = biological target: ULK2 (human) (UniProt Q8IYT8)
[4] = biological target: CAMK4 (human) (UniProt Q16566)
[5] = biological target: SRPK1 (human) (UniProt Q96SB4)
[6] = biological target: MYLK (human) (UniProt Q15746)
MYLK (human), sequence (Q15746 whole entry, looked up): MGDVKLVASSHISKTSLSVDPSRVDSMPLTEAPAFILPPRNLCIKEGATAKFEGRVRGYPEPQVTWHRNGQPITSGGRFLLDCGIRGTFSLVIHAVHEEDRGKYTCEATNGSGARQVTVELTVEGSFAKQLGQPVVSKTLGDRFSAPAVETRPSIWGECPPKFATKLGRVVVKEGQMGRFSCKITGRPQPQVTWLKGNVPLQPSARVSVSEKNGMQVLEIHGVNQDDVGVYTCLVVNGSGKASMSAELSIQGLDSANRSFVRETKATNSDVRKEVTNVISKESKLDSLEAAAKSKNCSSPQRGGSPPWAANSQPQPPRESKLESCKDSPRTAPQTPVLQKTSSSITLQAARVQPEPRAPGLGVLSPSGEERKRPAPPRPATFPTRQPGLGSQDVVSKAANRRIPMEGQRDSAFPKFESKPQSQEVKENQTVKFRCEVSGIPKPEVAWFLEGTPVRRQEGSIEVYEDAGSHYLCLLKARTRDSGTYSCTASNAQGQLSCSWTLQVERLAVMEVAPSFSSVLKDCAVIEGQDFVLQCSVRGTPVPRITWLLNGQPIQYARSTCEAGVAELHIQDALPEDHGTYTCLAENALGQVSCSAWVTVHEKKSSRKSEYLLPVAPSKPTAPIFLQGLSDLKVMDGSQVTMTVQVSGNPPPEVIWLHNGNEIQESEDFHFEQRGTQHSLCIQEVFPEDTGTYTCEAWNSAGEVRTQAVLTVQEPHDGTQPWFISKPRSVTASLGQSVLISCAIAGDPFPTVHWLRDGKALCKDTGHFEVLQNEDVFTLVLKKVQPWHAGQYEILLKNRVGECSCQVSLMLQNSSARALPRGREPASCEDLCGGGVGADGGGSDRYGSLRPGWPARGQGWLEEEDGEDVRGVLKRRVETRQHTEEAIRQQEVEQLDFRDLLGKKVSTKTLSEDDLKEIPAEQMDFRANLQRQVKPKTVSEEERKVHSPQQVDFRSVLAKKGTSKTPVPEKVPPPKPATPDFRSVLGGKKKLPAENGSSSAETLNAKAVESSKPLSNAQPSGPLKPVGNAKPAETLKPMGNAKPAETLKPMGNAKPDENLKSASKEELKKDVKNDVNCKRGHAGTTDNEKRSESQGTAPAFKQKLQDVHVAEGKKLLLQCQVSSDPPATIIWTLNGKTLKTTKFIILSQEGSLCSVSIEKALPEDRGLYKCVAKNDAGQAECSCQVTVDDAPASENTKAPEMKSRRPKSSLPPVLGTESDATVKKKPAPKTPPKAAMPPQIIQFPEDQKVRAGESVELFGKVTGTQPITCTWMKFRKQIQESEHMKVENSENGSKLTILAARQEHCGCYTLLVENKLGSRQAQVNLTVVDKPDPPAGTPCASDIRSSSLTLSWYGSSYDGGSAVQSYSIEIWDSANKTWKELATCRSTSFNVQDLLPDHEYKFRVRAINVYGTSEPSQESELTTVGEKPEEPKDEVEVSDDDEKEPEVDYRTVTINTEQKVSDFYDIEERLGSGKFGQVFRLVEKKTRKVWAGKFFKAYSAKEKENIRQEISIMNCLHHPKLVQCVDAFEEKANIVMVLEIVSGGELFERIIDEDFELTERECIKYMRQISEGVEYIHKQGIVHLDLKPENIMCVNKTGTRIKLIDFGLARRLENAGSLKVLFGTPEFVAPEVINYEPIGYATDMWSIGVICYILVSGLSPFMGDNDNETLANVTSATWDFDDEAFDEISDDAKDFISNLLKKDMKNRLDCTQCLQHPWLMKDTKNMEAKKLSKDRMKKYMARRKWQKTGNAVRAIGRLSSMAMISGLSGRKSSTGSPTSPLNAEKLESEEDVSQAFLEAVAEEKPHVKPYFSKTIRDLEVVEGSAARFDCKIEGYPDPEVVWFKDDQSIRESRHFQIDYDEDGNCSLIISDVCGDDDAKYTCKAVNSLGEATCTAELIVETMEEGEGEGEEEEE

[7] = biological target: CDK1 CCNA2 (human) (UniProt P06493+P20248)
[8] = biological target: LTK (human) (UniProt P29376)
[9] = biological target: STK25 (human) (UniProt O00506)
[10] = biological target: CAMK2A (human) (UniProt Q9UQM7)
[11] = biological target: AKT3 (human) (UniProt Q9Y243)
[12] = biological target: CSNK1G2 (human) (UniProt P78368)
[13] = biological target: ADRBK1 (human) (UniProt P25098)
[14] = biological target: ABL1 (human) (UniProt P00519)
[15] = biological target: RIPK2 (human) (UniProt O43353)
[16] = biological target: PTK6 (human) (UniProt Q13882)
PTK6 (human), sequence (Q13882 whole entry, looked up): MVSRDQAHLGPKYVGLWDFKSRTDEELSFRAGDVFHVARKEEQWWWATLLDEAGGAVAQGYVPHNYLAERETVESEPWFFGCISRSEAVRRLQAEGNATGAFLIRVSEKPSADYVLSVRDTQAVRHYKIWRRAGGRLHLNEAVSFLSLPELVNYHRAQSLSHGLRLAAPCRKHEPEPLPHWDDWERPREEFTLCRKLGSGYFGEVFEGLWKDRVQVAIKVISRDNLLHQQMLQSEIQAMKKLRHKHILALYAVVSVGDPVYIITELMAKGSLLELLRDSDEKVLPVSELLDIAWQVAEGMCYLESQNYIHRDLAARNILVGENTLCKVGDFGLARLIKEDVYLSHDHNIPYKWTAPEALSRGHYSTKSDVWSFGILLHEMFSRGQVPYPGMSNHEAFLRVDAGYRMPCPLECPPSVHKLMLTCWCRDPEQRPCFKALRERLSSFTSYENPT

[17] = biological target: ABL2 (human) (UniProt P42684)
[18] = biological target: MAPK3 (human) (UniProt P27361)
[19] = biological target: CHUK (human) (UniProt O15111)
[20] = biological target: CAMK1 (human) (UniProt Q14012)
[21] = biological target: PRKD1 (human) (UniProt Q15139)
[22] = biological target: NTRK1 (human) (UniProt P04629)
[23] = biological target: PRKX (human) (UniProt P51817)
PRKX (human), sequence (P51817 whole entry, looked up): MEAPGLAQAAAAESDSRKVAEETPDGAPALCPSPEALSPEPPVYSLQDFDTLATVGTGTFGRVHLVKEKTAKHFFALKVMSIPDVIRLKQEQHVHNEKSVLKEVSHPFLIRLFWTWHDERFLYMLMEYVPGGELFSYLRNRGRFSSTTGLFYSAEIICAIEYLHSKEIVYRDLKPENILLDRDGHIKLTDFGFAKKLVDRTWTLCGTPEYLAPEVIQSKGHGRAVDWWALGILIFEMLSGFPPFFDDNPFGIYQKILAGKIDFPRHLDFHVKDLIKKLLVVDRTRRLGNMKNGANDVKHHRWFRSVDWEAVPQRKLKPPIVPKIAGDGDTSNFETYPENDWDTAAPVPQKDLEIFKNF

[24] = biological target: NTRK3 (human) (UniProt Q16288)
NTRK3 (human), sequence (Q16288 whole entry, looked up): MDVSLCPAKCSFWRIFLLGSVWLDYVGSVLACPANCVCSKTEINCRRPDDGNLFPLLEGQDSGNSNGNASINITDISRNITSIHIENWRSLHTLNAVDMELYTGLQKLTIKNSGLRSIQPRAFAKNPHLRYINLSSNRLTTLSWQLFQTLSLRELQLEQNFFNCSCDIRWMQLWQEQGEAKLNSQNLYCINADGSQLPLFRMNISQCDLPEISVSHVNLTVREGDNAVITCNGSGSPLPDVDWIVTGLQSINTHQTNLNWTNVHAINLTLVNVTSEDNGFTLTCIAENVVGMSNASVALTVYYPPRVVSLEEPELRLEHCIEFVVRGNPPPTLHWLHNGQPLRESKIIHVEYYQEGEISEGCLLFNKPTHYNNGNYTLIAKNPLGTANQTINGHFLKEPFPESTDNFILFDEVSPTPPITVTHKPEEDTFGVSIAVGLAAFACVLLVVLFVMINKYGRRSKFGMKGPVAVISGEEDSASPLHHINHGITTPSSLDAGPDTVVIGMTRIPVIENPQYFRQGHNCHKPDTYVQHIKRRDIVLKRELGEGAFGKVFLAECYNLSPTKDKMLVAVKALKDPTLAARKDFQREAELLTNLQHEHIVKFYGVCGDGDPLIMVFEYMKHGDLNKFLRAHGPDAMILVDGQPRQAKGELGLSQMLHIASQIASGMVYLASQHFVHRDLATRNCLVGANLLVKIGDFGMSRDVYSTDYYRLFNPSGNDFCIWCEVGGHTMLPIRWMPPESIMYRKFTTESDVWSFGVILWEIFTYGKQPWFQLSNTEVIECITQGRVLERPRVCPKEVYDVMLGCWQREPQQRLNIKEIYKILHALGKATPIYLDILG

[25] = biological target: MAPK10 (human) (UniProt P53779)
[26] = biological target: INSRR (human) (UniProt P14616)
[27] = biological target: CDK2 CCNA2 (human) (UniProt P24941+P20248)
[28] = biological target: PKN1 (human) (UniProt Q16512)
PKN1 (human), sequence (Q16512 whole entry, looked up): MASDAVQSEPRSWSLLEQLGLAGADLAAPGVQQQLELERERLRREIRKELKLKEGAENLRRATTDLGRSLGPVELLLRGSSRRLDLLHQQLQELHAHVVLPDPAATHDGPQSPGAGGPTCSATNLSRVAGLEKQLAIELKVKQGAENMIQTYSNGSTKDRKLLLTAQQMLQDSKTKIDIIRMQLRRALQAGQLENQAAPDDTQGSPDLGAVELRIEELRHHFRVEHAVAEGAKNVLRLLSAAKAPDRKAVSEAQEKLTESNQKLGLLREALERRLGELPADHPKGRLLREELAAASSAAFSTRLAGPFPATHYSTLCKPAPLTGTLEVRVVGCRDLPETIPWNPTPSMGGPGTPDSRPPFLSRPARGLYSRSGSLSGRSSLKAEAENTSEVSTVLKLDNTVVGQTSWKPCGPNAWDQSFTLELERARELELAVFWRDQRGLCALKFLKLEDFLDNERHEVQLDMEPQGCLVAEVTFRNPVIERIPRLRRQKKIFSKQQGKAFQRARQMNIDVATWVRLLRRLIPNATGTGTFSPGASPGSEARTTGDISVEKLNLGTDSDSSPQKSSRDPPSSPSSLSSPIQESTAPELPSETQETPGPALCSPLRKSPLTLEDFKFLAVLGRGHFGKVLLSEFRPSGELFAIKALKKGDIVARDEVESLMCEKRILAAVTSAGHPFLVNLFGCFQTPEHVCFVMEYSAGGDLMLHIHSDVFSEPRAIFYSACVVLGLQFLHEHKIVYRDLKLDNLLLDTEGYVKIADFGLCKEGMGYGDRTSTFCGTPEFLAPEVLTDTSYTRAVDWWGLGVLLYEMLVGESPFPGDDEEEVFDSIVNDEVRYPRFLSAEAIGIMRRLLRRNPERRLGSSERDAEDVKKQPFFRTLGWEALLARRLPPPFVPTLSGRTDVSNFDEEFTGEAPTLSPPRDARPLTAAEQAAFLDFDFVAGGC

[29] = biological target: GSK3A (human) (UniProt P49840)
[30] = biological target: MST1R (human) (UniProt Q04912)
[31] = biological target: CDK2 CCNE1 (human) (UniProt P24941+P24864)
[32] = biological target: MAP3K3 (human) (UniProt Q99759)
[33] = biological target: BTK (human) (UniProt Q06187)
[34] = biological target: STK3 (human) (UniProt Q13188)
STK3 (human), sequence (Q13188 whole entry, looked up): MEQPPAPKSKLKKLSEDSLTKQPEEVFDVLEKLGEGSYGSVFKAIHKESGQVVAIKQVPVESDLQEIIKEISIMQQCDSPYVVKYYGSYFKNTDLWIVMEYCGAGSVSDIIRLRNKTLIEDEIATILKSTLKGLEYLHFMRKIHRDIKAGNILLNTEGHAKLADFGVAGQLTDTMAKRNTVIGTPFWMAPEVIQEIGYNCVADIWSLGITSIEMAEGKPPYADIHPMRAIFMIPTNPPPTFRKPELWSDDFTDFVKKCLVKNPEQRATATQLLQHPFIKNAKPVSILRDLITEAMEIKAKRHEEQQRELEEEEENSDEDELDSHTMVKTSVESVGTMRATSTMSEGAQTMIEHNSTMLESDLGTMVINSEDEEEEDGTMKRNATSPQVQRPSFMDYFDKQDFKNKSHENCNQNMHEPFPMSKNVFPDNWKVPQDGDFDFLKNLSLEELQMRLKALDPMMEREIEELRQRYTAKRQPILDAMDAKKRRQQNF

[35] = biological target: PAK2 (human) (UniProt Q13177)
[36] = biological target: IKBKB (human) (UniProt O14920)
[37] = biological target: GSG2 (human) (UniProt Q8TF76)
[38] = biological target: MET (human) (UniProt P08581)
[39] = biological target: CDK7 CCNH MNAT1 (human) (UniProt P50613+P51948+P51946)
[40] = biological target: MATK (human) (UniProt P42679)
[41] = biological target: TBK1 (human) (UniProt Q9UHD2)
[42] = biological target: EPHA8 (human) (UniProt P29322)

`O=C(c1ccccc1)c1ccc(N2CCOCC2)cc1O` gave a residual activity [1] of 99.1%, a residual activity [2] of 94.9% and a residual activity [3] of 96.7%. For the same compound, the residual activity [4] was 94.7%, the residual activity [5] was 94.2% and the residual activity [6] was 91.8%. For the same compound, the residual activity [7] was 103%, the residual activity [8] was 107% and the residual activity [9] was 100%. The residual activity [10] was 105%, the residual activity [11] was 105% and the residual activity [12] was 96.1%. It also gave a residual activity [13] of 99.6%, a residual activity [14] of 102% and a residual activity [15] of 95%. The residual activity [16] was 98.2%, the residual activity [17] was 105% and the residual activity [18] was 102%. It also gave a residual activity [19] of 101%, a residual activity [20] of 97.5% and a residual activity [21] of 102%. It also gave a residual activity [22] of 99%, a residual activity [23] of 109% and a residual activity [24] of 93.7%. The residual activity [25] was 75.3%, the residual activity [26] was 97.6% and the residual activity [27] was 99.3%. For the same compound, the residual activity [28] was 104%, the residual activity [29] was 102% and the residual activity [30] was 106%. It also gave a residual activity [31] of 99.6%, a residual activity [32] of 97.8% and a residual activity [33] of 103%. For the same compound, the residual activity [34] was 100%, the residual activity [35] was 103% and the residual activity [36] was 105%. For the same compound, the residual activity [37] was 98.5%, the residual activity [38] was 115% and the residual activity [39] was 106%. The residual activity [40] was 92.5% and the residual activity [41] was 100%.

`N#C/C(=C1/Nc2ccccc2S1)c1ccnc(NCCc2cccnc2)n1` was tested, and the residual activity [1] was 92.8%, the residual activity [2] was 65% and the residual activity [3] was 116%. The residual activity [4] was 99%, the residual activity [5] was 97% and the residual activity [6] was 97.9%. It also gave a residual activity [7] of 83%, a residual activity [8] of 83.1% and a residual activity [9] of 97.7%. For the same compound, the residual activity [10] was 105%, the residual activity [11] was 105% and the residual activity [12] was 87%. For the same compound, the residual activity [13] was 103%, the residual activity [14] was 96.3% and the residual activity [16] was 46.5%. The residual activity [17] was 98.8%, the residual activity [18] was 99.4% and the residual activity [42] was 98.5%. It also gave a residual activity [19] of 88.6%, a residual activity [20] of 101% and a residual activity [21] of 82.4%. For the same compound, the residual activity [22] was 106%, the residual activity [23] was 96.4% and the residual activity [24] was 80.2%. It also gave a residual activity [26] of 92.2%, a residual activity [27] of 94.4% and a residual activity [28] of 96.3%. It also gave a residual activity [29] of 2.42%, a residual activity [30] of 93.5% and a residual activity [31] of 82.7%. For the same compound, the residual activity [32] was 94.7%, the residual activity [33] was 88.8% and the residual activity [34] was 98.9%. It also gave a residual activity [35] of 103%, a residual activity [37] of 31% and a residual activity [38] of 105%. The residual activity [39] was 93.2%, the residual activity [40] was 89.8% and the residual activity [41] was 100%.

Work on `Nc1ncnc2c1cnn2-c1ccccc1` yielded a residual activity [1] of 99.9%, a residual activity [2] of 98.4% and a residual activity [3] of 95.1%. For the same compound, the residual activity [4] was 104%, the residual activity [5] was 98.1% and the residual activity [6] was 99.7%. The residual activity [8] was 96.8%, the residual activity [9] was 93.2% and the residual activity [10] was 105%. It also gave a residual activity [11] of 102%, a residual activity [12] of 95.1% and a residual activity [13] of 99.4%. The residual activity [14] was 99.4%, the residual activity [15] was 93.1% and the residual activity [16] was 92%. It also gave a residual activity [17] of 93%, a residual activity [18] of 90.1% and a residual activity [42] of 90.5%. The residual activity [19] was 92.6%, the residual activity [20] was 97.5% and the residual activity [21] was 98.1%. It also gave a residual activity [22] of 96.1%, a residual activity [23] of 95.3% and a residual activity [24] of 93.6%. For the same compound, the residual activity [25] was 100%, the residual activity [26] was 106% and the residual activity [27] was 108%. For the same compound, the residual activity [28] was 98.6%, the residual activity [29] was 90.3% and the residual activity [30] was 100%. It also gave a residual activity [31] of 93.9%, a residual activity [32] of 95.5% and a residual activity [33] of 98.7%. For the same compound, the residual activity [34] was 92.3%, the residual activity [35] was 98.1% and the residual activity [36] was 97.3%. The residual activity [37] was 94.8%, the residual activity [38] was 97.1% and the residual activity [39] was 102%. For the same compound, the residual activity [40] was 89.9%.
